# Source: patent JP2022046588A, “治療用組成物およびその使用” (priority 2016, dated 2017)
# Where two headings read alike, the source gives them in different places.
# Assays:
# [1] = system: human epidermoid carcinoma cell line A-431 [ヒト類表皮癌細胞株A-431]; test: MTT cell proliferation assay, A-431; format: cell-based; conditions: for inhibition at 50 µg/mL: Homo sapiens, A-431, Example 7, 50 μg/ml, 24 h
# [2] = system: human basal cell carcinoma cell line TE 354.T [ヒト基底細胞癌細胞株TE 354.T]; test: MTT cell proliferation assay, TE 354.T; format: cell-based; conditions: for inhibition at 50 µg/mL: Homo sapiens, Example 8, 50 μg/ml, 24 h
# [3] = system: human gastric cancer cell line NCI-N87 [ヒト胃癌細胞株NCI-N87]; test: MTT cell proliferation assay, NCI-N87
# [4] = system: human colon adenocarcinoma cell line DLD-1 [ヒト結腸腺癌細胞株DLD-1]; test: MTT cell proliferation assay, DLD-1; format: cell-based
# [5] = system: human esophageal cancer cell line KYSE-30 [ヒト食道癌細胞株KYSE-30]; test: MTT cell proliferation assay, KYSE-30; format: cell-based; conditions: for inhibition at 58.5 µg/mL: low but significant
# [6] = system: human melanoma cell line A-2058 [ヒト黒色腫細胞株A-2058]; test: MTT cell proliferation assay, A-2058; format: cell-based
# [7] = Homo sapiens, NCI-N87, read-out: antiproliferative activity
smiles,measurement,setting,value
"CCCCCCCCCCCCC(O)CCCCC(O)CC(=O)OCC(O)COC(C)=O (stereo not drawn) [GLY-1Ac-1, 1-(3,8-ジヒドロキシエイコサノイル)3-アセトキシグリセロール]",inhibition at 50 µg/mL,[1],80.6%
same,inhibition at 50 µg/mL,[2],27.3%
same,inhibition at 10 µg/mL,[3]; [7],39%
same,inhibition at 25 µg/mL,[3]; [7],86%
same,inhibition at 25 µg/mL,"[4]; Homo sapiens, DLD-1, Example 9, second assay (retest), 25 μg/ml, read-out: antiproliferative activity",13%
same,inhibition at 50 µg/mL,"[4]; Homo sapiens, DLD-1, Example 9, second assay (retest), 50 μg/ml, read-out: antiproliferative activity",94%
same,potency ranking (in words),"[5]; Example 13, 50 μg/ml",最も強力
same,inhibition at 10 µg/mL,"[5]; Homo sapiens, KYSE-30, Example 13, 10 μg/ml, not statistically significant, read-out: antiproliferative activity",9%
same,inhibition at 25 µg/mL,"[5]; Homo sapiens, KYSE-30, Example 13, 25 μg/ml, read-out: antiproliferative activity",50%
"CCCCCCCCCCCCC(O)CCCCC(O)CC(=O)OCC(O)CO (stereo not drawn) [GLY-0Ac-1, 1-(3,8-ジヒドロキシエイコサノイル)グリセロール]",inhibition at 50 µg/mL,[1],81.5%
same,inhibition at 50 µg/mL,[2],38%
"CCCCCCCCCCCCCCCC(=O)OCC(O)CO (stereo not drawn) [MGP, モノパルミチン酸グリセロール]",inhibition at 50 µg/mL,"[5]; Homo sapiens, KYSE-30, Example 13, 50 μg/ml, read-out: inhibition of proliferation / antiproliferative activity",75%
"CCCCCCCCCCCCCC(O)CCCCC(O)CC(=O)OCC(O)CO (stereo not drawn) [GLY-0Ac-2, 1-(3,8-ジヒドロキシヘンエイコサノイル)グリセロール]",potency ranking (in words),"[6]; Example 6, 50 μg/ml, highly purified compounds",最も強力
"CCCCCCCCCCCCCC(O)CCCCC(O)CC(=O)OCC(O)COC(C)=O (stereo not drawn) [GLY-1Ac-2, 1-(3,8-ジヒドロキシヘンエイコサノイル)3-アセトキシグリセロール]",potency ranking (in words),"[4]; Example 9, first assay, 50 μg/ml",最も強力
O=c1[nH]cc(F)c(=O)[nH]1 [5-フルオロウラシル],antiproliferative activity (in words),"[1]; Example 7, 5-FU at 0.195, 0.65 and 1.95 μg/ml",低い且つ有意ではない活性
same,antiproliferative activity (in words),"[2]; Example 8, 5-FU at 0.195, 0.65 and 1.95 μg/ml",低い且つ有意ではない活性
same,activity ranking of 5-FU concentrations (in words),"[3]; Example 11, 5-FU at 6.5 μg/ml (of 6.5, 19.5, 58.5 μg/ml)",最も高い活性
same,antiproliferative activity (in words),"[3]; Example 11, 5-FU at 6.5, 19.5 and 58.5 μg/ml",低い且つ有意ではない活性
same,activity ranking of 5-FU concentrations (in words),"[3]; Example 12, 5-FU at 6.5 μg/ml (of 6.5, 19.5, 58.5 μg/ml)",最も高い活性
same,antiproliferative activity (in words),"[3]; Example 12, 5-FU at 6.5, 19.5 and 58.5 μg/ml",低い且つ有意ではない活性
same,antiproliferative activity (in words),"[4]; Example 9, 5-FU at 0.65 and 1.95 μg/ml",低い且つ有意ではない活性
same,antiproliferative activity (in words),"[4]; Example 10, 5-FU at 6.5, 19.5 and 58.5 μg/ml",低い且つ有意ではない活性
same,antiproliferative activity (in words),"[5]; Example 13, 5-FU at 6.5 and 19.5 μg/ml",有意ではない活性
same,antiproliferative activity (in words),"[5]; Example 14, 5-FU at 6.5 and 19.5 μg/ml",有意ではない活性
same,inhibition at 58.5 µg/mL,"[5]; Homo sapiens, KYSE-30, Example 13, 5-FU at 58.5 μg/ml, read-out: antiproliferative activity",17%
same,inhibition at 58.5 µg/mL,"[5]; Homo sapiens, KYSE-30, Example 14, 5-FU at 58.5 μg/ml, read-out: inhibition of proliferation",16.8%
same,antiproliferative activity (in words),"[6]; Example 6, 5-FU at 0.195, 0.65 and 1.95 μg/ml",低い且つ有意ではない活性
